Measured values as given in patent publication US7214767B2, “VHL peptide” (Hiroshi Kanno, priority 2005, dated 2007).

Experiments:
neural stem cells = assay: Cytotoxicity of the method of introduction into cells; type: cell-based
Source text: It became clear from this that VHL (157–171) has an activity of inducing neuronal differentiation.

[1] = system: neural stem cells derived from the adult rat hippocampus; assay: VHL oligopeptide introduced in vitro into neural stem cells using BioPORTER Reagent; type: cell-based; conditions: for morphological change compared with control group: 8 hours after introduction
Protocol: The oligopeptide prepared according to the above-described method was introduced in vitro into neural stem cells derived from the adult rat hippocampus at a concentration of 10–1000 ng/ml using BioPORTER Reagent (BioPORTER protein delivery reagent: Gene Therapy Systems, Inc., San Diego, Calif., U.S.A.). […] When this was immunofluorescence stained at a concentration of 100 ng/mL 24 hours after introduction, it was confirmed that 72% of them was differentiated into neurons, and 12% was differentiated into neuroglia cells (FIG. 4). Thereby, it was clarified that VHL could induce neuronal differentiation even by the method of peptide introduction not by introduction of gene.

Parkinson's model rat [2] = assay: Apomorphine induced rotation after grafting of VHL peptide-introduced neural stem cells; type: in vivo; conditions: after two months; 10^5 peptide-introduced neural stem cells grafted to striatum
Protocol: (§1) Next, it was studied whether the symptom could be improved by grafting of neural stem cells into which VHL (157–171) oligopeptide was introduced within the central nervous system of a nerve disease animal. Parkinson's model rat as a nerve disease animal was prepared by injection of microdose of 6-hydroxydopamine into brain of rat and depletion of unilateral dopamine producing cells. Two weeks later, apomorphine induced rotation was studied and rat rotating not less than 7 times per one minute was determined as Parkinson's disease model. 10^5 neural stem cells into which VHL (157–171) oligopeptide was introduced were grafted to striatum of cerebrum of rat. After grafting, apomorphine induced rotation was determined every week. […] As behavior analysis, paw reaching test (a test wherein an ability to eat pellets placed on stairs by extending one side injured leg is studied.) was conducted and […] (FIG. 6).

Parkinson's model rat [3] = assay: Paw reaching test after grafting of VHL peptide-introduced neural stem cells; type: in vivo; conditions: peptide-introduced neural stem cells grafted to striatum
Protocol: as §1

[4] = system: Parkinson's disease model rat; assay: Pathological and histological study of the brain after grafting; type: in vivo; conditions: peptide-introduced neural stem cells grafted to striatum
Protocol: as §1

skin stem cells = assay: Induction of differentiation of skin stem cells by VHL protein (FIG. 1); type: cell-based; conditions: neurofilament positive neuron
Source text: FIG. 1 is a fluorescence photomicrograph showing induction of differentiation of skin stem cell into neurofilament positive neuron.
A VHL gene, which is the causative gene of von Hippel-Lindau disease, a hereditary disease causing brain tumor (hemangioblastoma) or renal cancer, is a kind of a tumor suppressor gene. This gene was isolated from human chromosome 3 by Dr. Zbar et al.'s group (U.S.A.) in 1993. It has been reported that the VHL gene and the protein are expressed in neurons. However, the function of this gene in the nervous system was unknown. We considered that the gene may be involved in the formation of the nervous system at fetal developmental stages and studied differentiation over time of neural stem cells isolated from a rat fetal brain. […] As a result, when VHL gene is introduced to express VHL protein, neural stem cells are differentiated into neurons. Thus, it was clarified that VHL protein has a function to induce differentiation of nerves.

[5] = 100 ng/mL, 24 hours after introduction, BioPORTER Reagent

Ac-TLKERCLQVVRSLVKKKWKMRRNQFWVKVQRGK-NH2 [VHL (157–171)-ANT]
cytotoxicity (neural stem cells): does not show cytotoxicity

TLKERCLQVVRSLVK [VHL (157–171) oligopeptide]
cells differentiated into neuroglia cells (immunofluorescence staining) [1, 5]: 12% | cells differentiated into neurons (immunofluorescence staining) [1, 5]: 72% | morphological change compared with control group ([1]; BioPORTER Reagent): more marked as compared with the control group | morphological change compared with control group ([1]; BioPORTER Reagent, listed as VHL peptide): marked as compared with control group | concentration at which neural stem cells showed inclination to differentiate to neuron morphologically, elongation of neural spine observed ([1]; after 4 hours, introduced at 10–1000 ng/ml using BioPORTER Reagent): not less than 10 ng/ml | rats showing zero of apomorphine induced rotation (Parkinson's model rat [2]): about 30% | behavior analysis (paw reaching test, apomorphine induced rotation) compared with control group (Parkinson's model rat [3]): significant improvement | grafted cells taken within the brain [4]: about 70% | type of the grafted cells taken within the brain [4]: most of them were neurofilament positive neurons | type of the grafted cells taken within the brain ([4]; listed as VHL gene): most of them are neuronal filaments

VHL protein: von Hippel-Lindau protein consisting of 213 full length amino acids
differentiation of skin stem cells into neurons (skin stem cells): induces differentiation of skin stem cells into neurons
